The values below come from patent US20240180880A1, “METHODS OF USING EHMT2 INHIBITORS IN TREATING OR PREVENTING BLOOD DISORDERS” (Epizyme, Inc., priority 2017, published 2024).

What all share (format): cell-based
Test [1] concerns Human CD34+ progenitor cells. In words: Human CD34+ progenitors assay, HbF (Hbγ) quantitation by mass spectrometry. Particulars: compound 205 with Hydroxyurea, matrix format, CD34+ cells from a pool of 5 healthy donors; Loewe excess in Chalice. The source says: An in-vitro system to test the ability of compound to induce fetal hemoglobin expression was developed. This system used Human CD34+ progenitor cells freshly isolated from healthy donors blood collections. Peripheral blood mononuclear cells (PBMCs) were isolated from whole blood by density gradient centrifugation using SepMatem-50 and Lymphoprep™ from Stem Cell Technologies. CD34^+ hematopoietic progenitor cells (HSPCs) were isolated from PBMCs by magnetic separation using Stem Cells Technologies CD34+ positive selection/isolation kit (Stem Cell Technologies, #18056). CD34 cells were cultured using a 2-phase 14 day culture system. During phase 1 (day 0 to day 7) cells were expanded. Expansion was followed by phase 2 (day 7 to day 14) where cells were differentiated toward the erythroid lineage. Compounds were added on day 1 and day 7 as 1000× stock after being diluted in dimethyl sulfoxide (DMSO) in a 3-fold series. […] At day 14 cells were harvested for Fluorescent Activated Cell Sorting (FACS) analysis and for HbF quantitation by Mass spectrometry. […] Data was analyzed using FlowJo software. % HbF^+ cells and ratios H3/H3K9me2 intensities were calculated for CD71^+/CD235a^+ gated populations.
Hydroxyurea was also evaluated as single agent and in combination with the EHMT1/2 inhibitor compound 205 in a matrix format using CD34^+ cells isolated from a pool of 5 healthy donors. […]

Test [2] has as its system Various cell lines. Description: Cotreatment model (7-day) combination proliferation assay, cellular ATP luminescence, Loewe synergy. The note with it: several cell lines, Compound 205 and DNA hypomethylating agents, 7-day cotreatment models (FIG. 1D). As to the method: Cells were incubated for seven days under humidified atmosphere of 5% CO2 at 37° C. The final concentration of DMSO (vehicle) in the assay was 0.1% v/v. Quantification of proliferation through measurement of cellular adenosine triphosphate (ATP) was performed via a luminescent cell viability assay. Plates were read in a plate reader with luminescence module. Quantification of synergy was performed using the Loewe Additivity model and calculating the Loewe Volume (V Loewe) with the Chalice Software (Horizon) and dose response curves and IC50 vs concentration plots were generated with Graphpad Prism software.

Test [3] has as its system Human CD34+ progenitor cells. Description: Human CD34+ progenitors assay for fetal hemoglobin induction, % HbF+ cells by FACS (healthy donors). The note with it: for % HbF+ cells: 26% basal level. The source says: An in-vitro system to test the ability of compound to induce fetal hemoglobin expression was developed. This system used Human CD34+ progenitor cells freshly isolated from healthy donors blood collections. Peripheral blood mononuclear cells (PBMCs) were isolated from whole blood by density gradient centrifugation using SepMatem-50 and Lymphoprep™ from Stem Cell Technologies. CD34^+ hematopoietic progenitor cells (HSPCs) were isolated from PBMCs by magnetic separation using Stem Cells Technologies CD34+ positive selection/isolation kit (Stem Cell Technologies, #18056). CD34 cells were cultured using a 2-phase 14 day culture system. During phase 1 (day 0 to day 7) cells were expanded. Expansion was followed by phase 2 (day 7 to day 14) where cells were differentiated toward the erythroid lineage. Compounds were added on day 1 and day 7 as 1000× stock after being diluted in dimethyl sulfoxide (DMSO) in a 3-fold series. Final DMSO concentration in the assay was 0.1%. At day 14 cells were harvested for Fluorescent Activated Cell Sorting (FACS) analysis and for HbF quantitation by Mass spectrometry. For cell surface and intracellular marker analysis by FACS, cells were fixed and stained with a cocktail of antibodies covering erythroid lineage markers, HbF and H3 and H3K9me2 (Table 11). Data was collected using Canto II flow cytometer (BD Biosciences) and the FACSDiva software. Data was analyzed using FlowJo software. % HbF^+ cells and ratios H3/H3K9me2 intensities were calculated for CD71^+/CD235a^+ gated populations.
A list of pharmacological agents was evaluated for their potential to induce fetal Hemoglobin (HbF) in order to identify combination partners for our EHMT1/2 inhibitors. HbF can be induced by toxicity; therefore, the potential of the agents to induce HbF were evaluated in the context of cell viability. (Table 12). The EHMT1/2 inhibitor Compound 205 was evaluated in combination with a fixed dose of 10 μM Hydroxyurea and 0.1 μM Pomalidomide. […] 10 μM Hydroxyurea as a single agent was able to induce 01% HbF^+ cells from 26% basal level to 45% while 0.016 μM compound 205 as a single agent induced to 45%. In combination these two agents were able to induced % HbF^+ to 63% (FIG. 3A). […] 0.1 μM Pomalidomide as a single agent was able to induce ° % HbF cells from 26% basal level to 48% while 0.016 μM compound 205 as a single agent induced to 45%. In combination these two agents were able to induce % HbF^+ to 78% (FIG. 3B).
Hydroxyurea was also evaluated as single agent and in combination with the EHMT1/2 inhibitor compound 205 in a matrix format using CD34^+ cells isolated from a pool of 5 healthy donors. […] (FIG. 4 and FIG. 5, respectively). It is noted that for Loewe excess determination in Chalice, data was normalized to the highest and lowest Hbγ induction observed under the conditions and dose ranges in the assay.
On the technique in general: In flow cytometry, cells or beads pass a laser one at a time.

With `CNc1cc(C)nc(Nc2ccc(OC)c(OCCCN3CCCC3)c2)n1` [Compound 205], the “combination effect on Hbγ protein expression (MS quantification)” value in test [1] is “synergistically”. Further, in test [2], the “combination effect on proliferation (Loewe)” value is “synergy”. Further, the “% HbF+ cells” value in test [3] (0.016 μM compound 205 as a single agent) amounted to 45%; in test [3] (0.016 μM compound 205 in combination with 0.1 μM Pomalidomide), 78%; in test [3] (0.016 μM compound 205 in combination with 10 μM Hydroxyurea), 63%. In test [3] (compound 205 with Hydroxyurea, matrix format, CD34+ cells from a pool of 5 healthy donors), the “combination effect on % HbF+ cells (FACS analysis)” value is reported as “synergistically”.
